Assay [1] relates to HEK293-SIE STAT3 Y640F. Kind of assay: drug sensitivity score (inhibition of STAT3 luciferase reporter); higher = stronger inhibition. To be noted: 6 h; IL6 0 ng/ml. An outline of the steps:
(§1)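 Luciferase signal was measured with ONE-Glo on a PHERAstar FS after HEK293 cells carrying a sis-inducible element luciferase reporter responsive to STAT3 were exposed to drugs for 6 h at 5-8 concentrations spanning a 10 000-fold range. The cells had been stably transduced by lentivirus with wild-type or mutant STAT3 and plated at 10 000 cells/well in 384-well drug plates, with IL6 (100 ng/ml) added only to wild-type cells. The drug sensitivity score is an optimized area under the dose-response curve for reporter inhibition, and each value is the mean of two experiments.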
A general note: In a reporter assay the amount or activity of a reporter protein is the signal.

Assay [2] deals with HEK293-SIE STAT3 WT. Described as above. To be noted: 6 h; STAT3: WT; IL6 100 ng/ml. An outline of the steps: as §1
For assay [3], the system named is SNK6. Kind of assay: drug sensitivity score (viability inhibition); higher = more sensitive. To be noted: 72 h; IL2 2.5 ng/ml. An outline of the steps:
(§2)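 NK cell lines in complete RPMI with 2.5 ng/ml IL2 were added at 3 000 cells/well to 384-well drug plates holding 5-8 concentrations over a 10 000-fold range. After 72 h at 37 °C, 5% CO2, viability was read with CellTiter-Glo on a PHERAstar FS plate reader. Drug sensitivity score is an optimized area under the dose-response curve. The experiment was repeated twice.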

Assay [4] deals with NK-YS. The description is as above. To be noted: 72 h; IL2 2.5 ng/ml. An outline of the steps: as §2
Assay [5] concerns KHYG-1. Described as above. To be noted: 72 h; IL2 2.5 ng/ml. In short, it runs like this: as §2
The subject of assay [6] is KAI3. The assay is described as above. To be noted: 72 h; IL2 2.5 ng/ml. An outline of the steps: as §2
The test system of assay [7] is NKL. The assay is described as above. To be noted: 72 h; IL2 2.5 ng/ml. An outline of the steps:
as §2

In assay [8] the test system is YT. Described as above. To be noted: 72 h; IL2 2.5 ng/ml. An outline of the steps: as §2
Assay [9] concerns NK-92. Described as above. To be noted: 72 h; IL2 2.5 ng/ml. In short, it runs like this:
as §2

15 molecules from the supplement of paper PMC5722580 can be followed below.

For `COc1cc(Nc2ncc(F)c(Nc3ccc4c(n3)N(COP(=O)(O)O)C(=O)C(C)(C)O4)n2)cc(OC)c1OC` [Fostamatinib], the drug sensitivity score was 2.93 DSS in [1]; 9.75 DSS in [2]; 3.04 DSS in [3]; 1.04 DSS in assay [4]; 1.22 DSS in [5]; 7.41 DSS in assay [6]. For the same molecule, the drug sensitivity score in [7] turned out to be 4.15 DSS; in assay [8], 2.81 DSS; in assay [9], 3.43 DSS.

On to `C[C@]12C=CC(=O)C=C1CC[C@@H]1[C@@H]2[C@@H](O)C[C@@]2(C)[C@H]1CC[C@]2(O)C(=O)CO` [Prednisolone], for which the drug sensitivity score in assay [1] was 0 DSS; in [2] it was 0 DSS; in assay [3], 2.12 DSS; in assay [4] it was 1.37 DSS; in assay [5] it was 6.65 DSS; in assay [6], 0 DSS. Besides, the drug sensitivity score in assay [7] is 11 DSS; in assay [8], 5.05 DSS; in [9], 0 DSS.

In the case of `Cc1[nH]c2ccccc2c1CCNCc1ccc(/C=C/C(=O)NO)cc1` [Panobinostat], the drug sensitivity score in [1] was 4.7 DSS; in assay [2], 3.75 DSS; in [3], 21.9 DSS; in [4] it was 23 DSS; in assay [5], 23.1 DSS; in assay [6], 21.9 DSS. Also, the drug sensitivity score was 24.2 DSS in [7], 18.8 DSS in assay [8] and 21.8 DSS in assay [9].

For the molecule `CN[C@@H]1C[C@H]2O[C@@](C)([C@@H]1OC)n1c3ccccc3c3c4c(c5c6ccccc6n2c5c31)C(=O)N[C@H]4O` [UCN-01], the drug sensitivity score stood at 20.3 DSS in assay [1]; 22.9 DSS in assay [2]; 30.1 DSS in [3]; 28.7 DSS in [4]; 30.7 DSS in [5]; 29.8 DSS in assay [6]. The drug sensitivity score in assay [7] was found to be 26.9 DSS; in [8], 20.5 DSS; in [9] it was 27.3 DSS.

Turning to `N#C/C(=C\c1ccc(O)c(O)c1)C(=O)NCc1ccccc1` [AG490], the drug sensitivity score in assay [1] is 1.9 DSS; in [2], 1.18 DSS; in assay [3], 10.2 DSS; in assay [4], 13.3 DSS; in assay [5], 8.13 DSS; in [6] it was 8.31 DSS. For the same molecule, the values for the drug sensitivity score in [7], in assay [8] and in assay [9] were 10.3 DSS, 8.84 DSS and 9.21 DSS, respectively.

In the case of `C[C@@H]1C[C@H]2[C@@H]3CCC4=CC(=O)C=C[C@]4(C)[C@@]3(F)[C@@H](O)C[C@]2(C)[C@@]1(O)C(=O)CO` [Dexamethasone], the drug sensitivity score in assay [1] was 2.6 DSS; in assay [2], 1.8 DSS; in [3] it was 0 DSS; in [4] it was 3.83 DSS; in assay [5] it was 15.6 DSS; in assay [6] it was 1.14 DSS. Moreover, the drug sensitivity score came out at 24.6 DSS in assay [7], 9.73 DSS in assay [8] and 0 DSS in [9].

Take `O=C(NC[C@H](O)CO)c1ccncc1Nc1ccc(I)cc1F` [Pimasertib]: the drug sensitivity score in assay [1] came out at 2.03 DSS; in assay [2], 3.4 DSS; in assay [3] it was 0.301 DSS; in [4] it was 2.47 DSS; in [5], 15.8 DSS; in [6], 4.56 DSS. The results for the drug sensitivity score in [7], in [8] and in [9] were 11 DSS, 0.0567 DSS and 0 DSS, respectively.

Consider `CCNC(=O)c1noc(-c2cc(C(C)C)c(O)cc2O)c1-c1ccc(CN2CCOCC2)cc1` [Luminespib], for which the drug sensitivity score in [1] stood at 12.8 DSS; in [2] it was 16.3 DSS; in assay [3], 19.6 DSS; in [4], 26.9 DSS; in assay [5], 24 DSS; in [6] it was 25.6 DSS. In addition, the figures for the drug sensitivity score in [7], in assay [8] and in [9] were 29.1 DSS, 18.6 DSS and 27.4 DSS, respectively.

Regarding `C[C@@H]1CC(=O)c2c(ccc3c2C(=O)c2cccc(O)c2C3=O)C1` [STA-21], the drug sensitivity score in assay [1] was 11.5 DSS; in [2], 10.3 DSS; in assay [3], 2.24 DSS; in assay [4] it was 9.69 DSS; in assay [5], 10 DSS; in assay [6], 2.22 DSS. Moreover, the results for the drug sensitivity score in assay [7], in assay [8] and in assay [9] were 11.5 DSS, 5.75 DSS and 4.92 DSS, respectively.

Take `N#CCNC(=O)c1ccc(-c2ccnc(Nc3ccc(N4CCOCC4)cc3)n2)cc1` [Momelotinib]: the drug sensitivity score in assay [1] was 12.4 DSS; in assay [2], 24.2 DSS; in [3] it was 8.25 DSS; in assay [4], 10.8 DSS; in assay [5] it was 18.9 DSS; in assay [6] it was 13.9 DSS. Besides, the drug sensitivity score in assay [7] is 15.9 DSS; in assay [8], 8.12 DSS; in [9] it was 10.1 DSS.

Turning to `C[C@@]1(C(=O)Nc2ccc(F)nc2)CCCN1c1nc(Nc2cc(C3CC3)n[nH]2)c2cccn2n1`, the drug sensitivity score turned out to be 8.23 DSS in assay [1]; 1.95 DSS in assay [2]; 10.9 DSS in assay [3]; 11.1 DSS in assay [4]; 7.86 DSS in [5]; 4.45 DSS in [6]. The drug sensitivity score in [7] stood at 2.75 DSS; in [8], 5.74 DSS; in assay [9], 5.6 DSS.

Consider `CCN(CC)CCOc1ccc(C(=C(Cl)c2ccccc2)c2ccccc2)cc1` [Clomifene], for which the drug sensitivity score is 0 DSS in assay [1]; 1.9 DSS in assay [2]; 5.13 DSS in assay [3]; 2.67 DSS in assay [4]; 5.07 DSS in [5]; 5.61 DSS in assay [6]. Also, the figures for the drug sensitivity score in [7], in assay [8] and in assay [9] were 4.4 DSS, 4.23 DSS and 5.49 DSS, respectively.

For the molecule `CNC(=O)c1ccccc1Sc1ccc2c(/C=C/c3ccccn3)n[nH]c2c1` [Axitinib], the drug sensitivity score came out at 0 DSS in assay [1]; 0 DSS in [2]; 8.94 DSS in [3]; 10.2 DSS in assay [4]; 10.9 DSS in [5]; 10.9 DSS in assay [6]. In addition, the drug sensitivity score worked out at 8.05 DSS in assay [7], 8.91 DSS in [8] and 6.72 DSS in assay [9].

In the case of `CO[C@H]1C[C@@H]2CC[C@@H](C)[C@@](O)(O2)C(=O)C(=O)N2CCCC[C@H]2C(=O)O[C@H]([C@H](C)C[C@@H]2CC[C@@H](OC(=O)C(C)(CO)CO)[C@H](OC)C2)CC(=O)[C@H](C)/C=C(\C)[C@@H](O)[C@@H](OC)C(=O)[C@H](C)C[C@H](C)/C=C/C=C/C=C/1C` [Temsirolimus], the drug sensitivity score in assay [1] was 11.8 DSS; in assay [2], 8.55 DSS; in assay [3], 11.6 DSS; in [4], 18.6 DSS; in assay [5] it was 10.1 DSS; in [6], 7.48 DSS. For the same molecule, the figures for the drug sensitivity score in [7], in [8] and in [9] were 20.6 DSS, 14 DSS and 4.18 DSS, respectively.

Take `CO[C@H]1C[C@@H]2CC[C@@H](C)[C@@](O)(O2)C(=O)C(=O)N2CCCC[C@H]2C(=O)O[C@H]([C@H](C)C[C@@H]2CC[C@@H](OCCO)[C@H](OC)C2)CC(=O)[C@H](C)/C=C(\C)[C@@H](O)[C@@H](OC)C(=O)[C@H](C)C[C@H](C)/C=C/C=C/C=C/1C` [Everolimus]: the drug sensitivity score in assay [1] worked out at 8.9 DSS; in assay [2], 3.15 DSS; in assay [3], 12.2 DSS; in assay [4] it was 16.8 DSS; in [5], 5.9 DSS; in assay [6], 6.6 DSS. Besides, the drug sensitivity score in assay [7] stood at 17.4 DSS; in [8], 11.8 DSS; in assay [9], 1.19 DSS.
